# Assays:
# [1] = Ratio of unbound brain concentration to drug level in cerebrospinal fluid in Beagle dog at 0.5 mg/kg, po by LC-MS/MS analysis; type: ADME, organism-based, Canis lupus familiaris; parameters: dose 0.5 mg/kg, route oral; details: in vivo
# [2] = Unbound fraction in cynomolgus monkey plasma at 0.1 mg/kg, sc by LC-MS/MS analysis; type: ADME, organism-based, Macaca fascicularis; parameters: dose 0.1 mg/kg, route subcutaneous
# [3] = Unbound fraction in cynomolgus monkey brain at 0.1 mg/kg, sc by LC-MS/MS analysis; type: ADME, organism-based, Macaca fascicularis; parameters: dose 0.1 mg/kg, route subcutaneous
# [4] = Ratio of unbound brain concentration to drug level in cerebrospinal fluid in Sprague-Dawley rat at 1 mg/kg, sc by LC-MS/MS analysis; type: ADME, organism-based; parameters: dose 1 mg/kg, route subcutaneous; details: in vivo
# Nucleic Acid [5] = assay: Ratio of drug level in cerebrospinal fluid to unbound plasma concentration in Beagle dog at 0.5 mg/kg, po by LC-MS/MS analysis; type: ADME, organism-based, Canis lupus familiaris; parameters: dose 0.5 mg/kg, route oral; details: in vivo
# Nucleic Acid [6] = assay: Ratio of drug level in cerebrospinal fluid to unbound plasma concentration in Sprague-Dawley rat at 1 mg/kg, sc by LC-MS/MS analysis; type: ADME, organism-based; parameters: dose 1 mg/kg, route subcutaneous; details: in vivo
# [7] = AUC(0 to 2 hrs) in Sprague-Dawley rat brain at 1 mg/kg, sc by LC-MS/MS analysis; type: ADME, organism-based; parameters: time < 2 hr, dose 1 mg/kg, route subcutaneous
# [8] = AUC(0 to 2 hrs) in Sprague-Dawley rat plasma at 1 mg/kg, sc by LC-MS/MS analysis; type: ADME, organism-based; parameters: time < 2 hr, dose 1 mg/kg, route subcutaneous
# [9] = Unbound fraction in Beagle dog plasma at 0.5 mg/kg, po by LC-MS/MS analysis; type: ADME, organism-based, Canis lupus familiaris; parameters: dose 0.5 mg/kg, route oral
# [10] = Ratio of unbound drug level in brain to plasma in cynomolgus monkey at 0.1 mg/kg, sc by LC-MS/MS analysis; type: ADME, organism-based, Macaca fascicularis; parameters: dose 0.1 mg/kg, route subcutaneous; details: brain and plasma
# [11] = Ratio of unbound drug level in brain to plasma in Beagle dog at 0.5 mg/kg, po by LC-MS/MS analysis; type: ADME, organism-based, Canis lupus familiaris; parameters: dose 0.5 mg/kg, route oral; details: brain and plasma
# [12] = Ratio of drug level in brain to plasma in cynomolgus monkey at 0.1 mg/kg, sc by LC-MS/MS analysis; type: ADME, organism-based, Macaca fascicularis; parameters: dose 0.1 mg/kg, route subcutaneous; details: brain and plasma, read-out: BPR
# [13] = Unbound fraction in Beagle dog brain at 0.5 mg/kg, po by LC-MS/MS analysis; type: ADME, organism-based, Canis lupus familiaris; parameters: dose 0.5 mg/kg, route oral
# [14] = Ratio of unbound drug level in brain to plasma in Sprague-Dawley rat at 1 mg/kg, sc by LC-MS/MS analysis; type: ADME, organism-based; parameters: dose 1 mg/kg, route subcutaneous
# [15] = AUC(0 to infinity) in Sprague-Dawley rat plasma at 1 mg/kg, sc by LC-MS/MS analysis; type: ADME, organism-based; parameters: time infinity, dose 1 mg/kg, route subcutaneous
# [16] = AUC(0 to infinity) in Sprague-Dawley rat brain at 1 mg/kg, sc by LC-MS/MS analysis; type: ADME, organism-based; parameters: time infinity, dose 1 mg/kg, route subcutaneous
# [17] = AUC(0 to 2 hrs) in Sprague-Dawley rat cerebrospinal fluid at 1 mg/kg, sc by LC-MS/MS analysis; type: ADME, organism-based; parameters: time < 2 hr, dose 1 mg/kg, route subcutaneous
# [18] = Ratio of unbound brain concentration to drug level in cerebrospinal fluid in cynomolgus monkey at 0.1 mg/kg, sc by LC-MS/MS analysis; type: ADME, organism-based, Macaca fascicularis; parameters: dose 0.1 mg/kg, route subcutaneous; details: in vivo
# Nucleic Acid [19] = assay: Ratio of drug level in cerebrospinal fluid to unbound plasma concentration in cynomolgus monkey at 0.1 mg/kg, sc by LC-MS/MS analysis; type: ADME, organism-based, Macaca fascicularis; parameters: dose 0.1 mg/kg, route subcutaneous; details: in vivo
# [20] = Ratio of drug level in brain to plasma in Sprague-Dawley rat at 1 mg/kg, sc by LC-MS/MS analysis; type: ADME, organism-based; parameters: dose 1 mg/kg, route subcutaneous; details: read-out: BPR
# [21] = AUC(0 to infinity) in Sprague-Dawley rat cerebrospinal fluid at 1 mg/kg, sc by LC-MS/MS analysis; type: ADME, organism-based; parameters: time infinity, dose 1 mg/kg, route subcutaneous
# Nucleic Acid [22] = assay: Ratio of drug level in cerebrospinal fluid to unbound plasma concentration in Sprague-Dawley rat at 3 mg/kg, sc by LC-MS/MS analysis; type: ADME, organism-based; parameters: dose 3 mg/kg, route subcutaneous; details: in vivo
# [23] = AUC(0 to 7 hrs) in Sprague-Dawley rat brain at 3 mg/kg, sc by LC-MS/MS analysis; type: ADME, organism-based; parameters: time < 7 hr, dose 3 mg/kg, route subcutaneous
# [24] = Ratio of drug level in brain to plasma in Sprague-Dawley rat at 3 mg/kg, sc by LC-MS/MS analysis; type: ADME, organism-based; parameters: dose 3 mg/kg, route subcutaneous; details: read-out: BPR
# [25] = AUC(0 to 7 hrs) in Sprague-Dawley rat cerebrospinal fluid at 3 mg/kg, sc by LC-MS/MS analysis; type: ADME, organism-based; parameters: time < 7 hr, dose 3 mg/kg, route subcutaneous
# [26] = AUC(0 to infinity) in Sprague-Dawley rat cerebrospinal fluid at 3 mg/kg, sc by LC-MS/MS analysis; type: ADME, organism-based; parameters: dose 3 mg/kg, route subcutaneous, time infinity
# [27] = AUC(0 to 7 hrs) in Sprague-Dawley rat plasma at 3 mg/kg, sc by LC-MS/MS analysis; type: ADME, organism-based; parameters: time < 7 hr, dose 3 mg/kg, route subcutaneous
# [28] = AUC(0 to infinity) in Sprague-Dawley rat plasma at 3 mg/kg, sc by LC-MS/MS analysis; type: ADME, organism-based; parameters: time infinity, dose 3 mg/kg, route subcutaneous
# [29] = Ratio of unbound drug level in brain to plasma in Sprague-Dawley rat at 3 mg/kg, sc by LC-MS/MS analysis; type: ADME, organism-based; parameters: dose 3 mg/kg, route subcutaneous
# [30] = AUC(0 to infinity) in Sprague-Dawley rat brain at 3 mg/kg, sc by LC-MS/MS analysis; type: ADME, organism-based; parameters: dose 3 mg/kg, route subcutaneous, time infinity
# [31] = Ratio of unbound brain concentration to drug level in cerebrospinal fluid in Sprague-Dawley rat at 3 mg/kg, sc by LC-MS/MS analysis; type: ADME, organism-based; parameters: dose 3 mg/kg, route subcutaneous; details: in vivo
structure (smiles),measurement,setting,value
CC(C)S(=O)(=O)N[C@H]1CCOC[C@@H]1c1ccc(-c2ccc(C#N)s2)cc1,Ratio,[1],1.19
same,fraction unbound,[2],0.0876
same,fraction unbound,[3],0.0228
same,Ratio,[4],0.74
same,Ratio,Nucleic Acid [5],0.43
same,Ratio,Nucleic Acid [6],0.6
same,AUC(0-t) at 2 h,[7],131 ng·h/mL
same,AUC(0-t) at 2 h,[8],122 ng·h/mL
same,fraction unbound,[9],0.0685
same,Kp uu,[10],0.73
same,Kp uu,[11],0.51
same,Kp,[12],2.82
same,fraction unbound,[13],0.026
same,Kp uu,[14],0.44
same,AUC(0-inf),[15],131 ng·h/mL
same,AUC(0-inf),[16],150 ng·h/mL
same,AUC(0-t) at 2 h,[17],3.46 ng·h/mL
same,Ratio,[18],0.94
same,Ratio,Nucleic Acid [19],0.78
same,Kp,[20],1.07
same,AUC(0-inf),[21],5.4 ng·h/mL
NC(=O)N1c2ccccc2C=Cc2ccccc21 [CARBAMAZEPINE],Ratio,Nucleic Acid [22],0.9
same,AUC(0-t) at 7 h,[23],2540 ng·h/mL
same,Kp,[24],1.12
same,AUC(0-t) at 7 h,[25],456 ng·h/mL
same,AUC(0-inf),[26],458 ng·h/mL
same,AUC(0-t) at 7 h,[27],2270 ng·h/mL
same,AUC(0-inf),[28],2280 ng·h/mL
same,Kp uu,[29],0.45
same,AUC(0-inf),[30],2550 ng·h/mL
same,Ratio,[31],0.5
Nc1nc(O)c2ncn(COC(CO)CO)c2n1 [GANCICLOVIR],Ratio,Nucleic Acid [22],0.05
same,AUC(0-t) at 7 h,[23],170 ng·h/mL
same,Kp,[24],0.1
same,AUC(0-t) at 7 h,[25],78.4 ng·h/mL
same,AUC(0-inf),[26],82.5 ng·h/mL
same,AUC(0-t) at 7 h,[27],1700 ng·h/mL
same,AUC(0-inf),[28],1720 ng·h/mL
same,Kp uu,[29],0.09
same,AUC(0-inf),[30],182 ng·h/mL
same,Ratio,[31],1.85

# Reference: ChEMBL document CHEMBL3526130, “An evaluation of using rat-derived single-dose neuropharmacokinetic parameters to project accurately large animal unbound brain drug concentrations” (Drug Metab Dispos, 2012)
